# Test results reported in patent publication US6417190B1, “Tricyclic nitrogen heterocycles as PDE IV inhibitors” (Boehringer Ingelheim Pharma KG, priority 1998, dated 2002).
# Tested on: human PDE IV
# Experiment: PDE IV inhibition, method of Torphy et al. (1992), [3H]cAMP, enzyme purified from human monocytes (U937-cells)
# Format: biochemical
# Details: 1 μCi/ml [3H] cAMP, 40 mM Tris-HCl (pH 7.8), 3 mM MgCl2, incubation 30 min at 30° C.
# Source text: Table 1 contains the pharmacological data obtained for the compounds of general formula (I). The data was obtained by the method of Torphy et al. (1992), J. Pharmacol. Exp. Ther. 263:1195.
row,Compound,IC50 [µM]
1,CCCc1nc2n(CCC)c(=O)c3[nH]c(C4CCCC4)nc3n2n1 [No. 6],0.049
2,CCCCc1nc2n(CCC)c(=O)c3[nH]c(C4CCCC4)nc3n2n1 [No. 14],0.081
3,CCCn1c(=O)c2[nH]c(C3CCCC3)nc2n2nc(C(C)C)nc12 [No. 1],0.018
4,CCn1c(=O)c2[nH]c(C3CCCC3)nc2n2nc(COc3ccccc3)nc12 [No. 15],0.11
5,CCn1c(=O)c2[nH]c(C(C)(C)C)nc2n2nc(Cc3ccccc3)nc12 [No. 7],0.053
6,CCCn1c(=O)c2[nH]c(N3CCOCC3)nc2n2nc(Cc3ccccc3)nc12 [No. 16],0.11
7,CCCn1c(=O)c2[nH]c(C3CCCC3)nc2n2nc(C(C)(C)C)nc12 [No. 13],0.079
8,CCCc1nc2n(CCC)c(=O)c3[nH]c(-c4ccccc4)nc3n2n1 [No. 8],0.055
9,CCn1c(=O)c2[nH]c(C(C)(C)C)nc2n2nc(Cc3ccc(OC)cc3)nc12 [No. 3],0.042
10,CCn1c(=O)c2[nH]c(C3CCCC3)nc2n2nc(CCc3ccccc3)nc12 [No. 4],0.046
11,CCCn1c(=O)c2[nH]c(C3CCCC3)nc2n2nc(CC)nc12 [No. 2],0.039
12,CCn1c(=O)c2[nH]c(C3CCCC3)nc2n2nc(CC3CCCCC3)nc12 [No. 17],0.11
13,CCc1nc2c([nH]1)c(=O)n(CC)c1nc(CC3CCCCC3)nn21 [No. 18],0.12
14,CCn1c(=O)c2[nH]c(C3CCCC3)nc2n2nc(Cn3cccc3)nc12 [No. 11],0.069
15,CCCc1nc2c([nH]1)c(=O)n(CCC)c1nc(Cc3ccccc3)nn21 [No. 10],0.069
16,CCCc1nc2c([nH]1)c(=O)n(CCC)c1nc(C3CCCC3)nn21 [No. 19],0.12
17,CCn1c(=O)c2[nH]c(C3CCCC3)nc2n2nc(Cc3ccccc3)nc12 [No. 9],0.057
18,CCCn1c(=O)c2[nH]c(C3CCCC3)nc2n2nc(Cc3ccccc3)nc12 [No. 12],0.074
